Tests used:
[1] = system: HS-Sch-2; experiment: relative IC50 (inflection point of fitted dose-response curve, CellTiter-Glo viability, 72 h; top asymptote may be below 50% inhibition); higher = less potent
How it was run: (§1)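 Viability of MPNST cell lines and primary human Schwann cells was read as CellTiter-Glo ATP luminescence after 72 h at 37 °C, 5% CO2, in 384-well plates seeded with 750–1000 cells per well. Each compound had been preprinted at five concentrations in 10-fold steps. Signals were scaled between vehicle and positive-control wells, duplicates averaged where present, and fitted with four-parameter logistic curves. Drug sensitivity score and relative IC50 (censored at the top concentration) come from those fits, and percent inhibition is taken at the top concentration.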

[2] = system: HS-PSS; experiment: as above
How it was run: as §1

[3] = system: ST8814; experiment: relative IC50 (inflection point of fitted dose-response curve, CellTox-Green cytotoxicity, 72 h; top asymptote may be below 50%); higher = less potent
How it was run: (§2)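 MPNST cell lines and primary human Schwann cells were grown for 72 h at 37 °C in 384-well plates containing five 10-fold compound dilutions. CellTox-Green, added before seeding at a final 1:1000 dilution, gave fluorescence from DNA released by disrupted cells, and signals were scaled to vehicle and positive-control wells. Curves were fitted with a four-parameter logistic model. Drug sensitivity score and relative IC50 come from these fits, with IC50 censored at the top concentration.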

[4] = system: S1507-2; experiment: as above
How it was run: as §2

[5] = system: HSC1; experiment: as above
How it was run: as §2

[6] = system: STS26T; experiment: as above
How it was run: as §2

[7] = system: HS-PSS; experiment: as above
How it was run: as §2

[8] = system: HSC2; experiment: as above
How it was run: as §2

[9] = system: YST-1; experiment: relative IC50 (inflection point of fitted dose-response curve, CellTiter-Glo viability, 72 h; top asymptote may be below 50% inhibition); higher = less potent
How it was run: as §1

[10] = system: HSC2; experiment: as above
How it was run: as §1

[11] = system: ST8814; experiment: as above
How it was run: as §1

[12] = system: S462; experiment: as above
How it was run: as §1

[13] = system: S1507-2; experiment: as above
How it was run: as §1

[14] = system: HSC1; experiment: as above
How it was run: as §1

[15] = system: STS26T; experiment: as above
How it was run: as §1

Structure (SMILES) | relative IC50 [1] | relative IC50 [2] | relative IC50 [3] | relative IC50 [4] | relative IC50 [5] | relative IC50 [6] | relative IC50 [7] | relative IC50 [8] | relative IC50 [9] | relative IC50 [10] | relative IC50 [11] | relative IC50 [12] | relative IC50 [13] | relative IC50 [14] | relative IC50 [15]
CCc1cncnc1N1CCN(Cc2nc3ccc(C(F)(F)F)cc3[nH]2)CC1 | 3740 nM | 2570 nM | > 10000 nM | > 10000 nM | > 10000 nM | > 10000 nM | > 10000 nM | > 10000 nM | – | – | – | – | – | – | –
Cc1sc2c(c1C)C(c1ccc(Cl)cc1)=N[C@H](CC(=O)OC(C)(C)C)c1nnc(C)n1-2 [(-)JQ1] | – | – | > 10000 nM | > 10000 nM | > 10000 nM | > 10000 nM | – | > 10000 nM | – | – | – | – | – | – | –
COc1cc2nccc(Oc3ccc(NC(=O)C4(C(=O)Nc5ccc(F)cc5)CC4)cc3)c2cc1OC [Cabozantinib] | – | – | > 1000 nM | > 1000 nM | > 1000 nM | > 1000 nM | > 1000 nM | > 1000 nM | > 1000 nM | > 1000 nM | – | – | – | – | –
Cc1c2oc3c(C)ccc(C(=O)N[C@@H]4C(=O)N[C@H](C(C)C)C(=O)N5CCC[C@H]5C(=O)N(C)CC(=O)N(C)[C@@H](C(C)C)C(=O)O[C@@H]4C)c3nc-2c(C(=O)N[C@@H]2C(=O)N[C@H](C(C)C)C(=O)N3CCC[C@H]3C(=O)N(C)CC(=O)N(C)[C@@H](C(C)C)C(=O)O[C@@H]2C)c(N)c1=O [Dactinomycin] | 1.95 nM | 5.05 nM | 49.1 nM | – | 12.4 nM | 3.07 nM | 12 nM | 8.46 nM | 0.88 nM | 0.779 nM | 3.46 nM | 1.86 nM | 5.95 nM | 0.906 nM | 2.08 nM
CO[C@@H](C(=O)N1Cc2[nH]nc(NC(=O)c3ccc(N4CCN(C)CC4)cc3)c2C1)c1ccccc1 [Danusertib] | 529 nM | 1270 nM | 1170 nM | – | 2690 nM | 744 nM | 2630 nM | 2390 nM | 57.8 nM | 968 nM | 1200 nM | 389 nM | 641 nM | 759 nM | 1230 nM
CCc1cnn2c(NCc3ccc[n+]([O-])c3)cc(N3CCCC[C@H]3CCO)nc12 [Dinaciclib] | 8.55 nM | 10.1 nM | 36.4 nM | – | 84.2 nM | 8.71 nM | 7.72 nM | 43.9 nM | 7.48 nM | 13.6 nM | 29.5 nM | 6.5 nM | 25.9 nM | 21.6 nM | 12.7 nM
CN1CCN(c2ccc3nc(-c4c(N)c5c(F)cccc5[nH]c4=O)[nH]c3c2)CC1 [Dovitinib] | – | > 10000 nM | > 10000 nM | > 10000 nM | > 10000 nM | > 10000 nM | > 10000 nM | > 10000 nM | – | – | > 10000 nM | – | – | – | –
Cn1cc(C2=C(c3cn(C4CCN(Cc5ccccn5)CC4)c4ccccc34)C(=O)NC2=O)c2ccccc21 [Enzastaurin] | – | – | > 10000 nM | > 10000 nM | > 10000 nM | – | > 10000 nM | > 10000 nM | > 10000 nM | 2910 nM | – | – | – | – | –
CCOC(=O)CCNc1cc(N2CCc3ccccc3CC2)nc(-c2ccccn2)n1 [GSK-J4] | 4520 nM | 6010 nM | 15500 nM | – | 23700 nM | 14800 nM | 27200 nM | 23700 nM | 4300 nM | 4570 nM | 5900 nM | 3740 nM | 6510 nM | 4680 nM | 5270 nM
COc1cc2ncnc(Nc3ccc(F)c(Cl)c3)c2cc1OCCCN1CCOCC1 [Gefitinib] | 1900 nM | 1780 nM | 2950 nM | – | > 10000 nM | 3930 nM | > 10000 nM | > 10000 nM | 987 nM | 2690 nM | 3560 nM | 4160 nM | 3600 nM | 2940 nM | 3770 nM
O=C1c2c(O)ccc(O)c2C(=O)c2c(NCCNCCO)ccc(NCCNCCO)c21 [Mitoxantrone] | 87.4 nM | 194 nM | 384 nM | – | > 1000 nM | 380 nM | > 1000 nM | > 1000 nM | 56.6 nM | 89.1 nM | 292 nM | 213 nM | 244 nM | 164 nM | 366 nM
COc1cccc2cc(-c3nc([C@H]4CC[C@H](C(=O)O)CC4)n4ncnc(N)c34)[nH]c12 [OSI-027] | 3470 nM | 3800 nM | > 10000 nM | – | > 10000 nM | > 10000 nM | > 10000 nM | > 10000 nM | 788 nM | 1150 nM | 883 nM | 608 nM | 631 nM | 712 nM | 1810 nM
COC1=CC(c2cc3ccccc3[nH]2)=N/C1=C\c1[nH]c(C)cc1C [Obatoclax] | 1590 nM | 1990 nM | 2870 nM | – | 2220 nM | 2960 nM | > 10000 nM | 2100 nM | 1230 nM | 1360 nM | 2880 nM | 1960 nM | 1900 nM | 1370 nM | 2330 nM
CC(=O)c1c(C)c2cnc(Nc3ccc(N4CCNCC4)cn3)nc2n(C2CCCC2)c1=O [Palbociclib] | 1940 nM | 1700 nM | > 10000 nM | – | > 10000 nM | > 10000 nM | > 10000 nM | > 10000 nM | 1350 nM | 286 nM | 1740 nM | 855 nM | 987 nM | 268 nM | 1340 nM
C/C(=C\c1csc(C)n1)[C@@H]1C[C@@H]2O[C@]2(C)CCC[C@H](C)[C@H](O)[C@@H](C)C(=O)C(C)(C)[C@@H](O)CC(=O)O1 [Patupilone] | 1.37 nM | 0.89 nM | 4.33 nM | – | 12.1 nM | 1.03 nM | > 1000 nM | 9.17 nM | 0.72 nM | 2.45 nM | 2.25 nM | 0.718 nM | 3.52 nM | 0.929 nM | 1.03 nM
CS(=O)(=O)N1CCN(Cc2cc3nc(-c4cccc5[nH]ncc45)nc(N4CCOCC4)c3s2)CC1 [Pictilisib] | 1750 nM | 1110 nM | 2280 nM | – | > 10000 nM | > 10000 nM | > 10000 nM | > 10000 nM | 445 nM | 1550 nM | 789 nM | 1150 nM | 128 nM | 1210 nM | 310 nM
CO[C@H](C(=O)[C@@H](O)[C@@H](C)O)[C@@H]1Cc2cc3cc(O[C@H]4C[C@@H](O[C@H]5C[C@@H](O)[C@H](O)[C@@H](C)O5)[C@@H](O)[C@@H](C)O4)c(C)c(O)c3c(O)c2C(=O)[C@H]1O[C@H]1C[C@@H](O[C@H]2C[C@@H](O[C@H]3C[C@](C)(O)[C@H](O)[C@@H](C)O3)[C@H](O)[C@@H](C)O2)[C@H](O)[C@@H](C)O1 [Plicamycin] | 865 nM | 1380 nM | > 10000 nM | – | 255 nM | 33.3 nM | 2410 nM | 247 nM | 564 nM | 52 nM | 51.4 nM | 85.2 nM | 102 nM | 45.6 nM | 47.5 nM
CNNCc1ccc(C(=O)NC(C)C)cc1 [Procarbazine] | > 10000 nM | > 10000 nM | > 10000 nM | – | > 10000 nM | > 10000 nM | > 10000 nM | > 10000 nM | > 10000 nM | > 10000 nM | > 10000 nM | > 10000 nM | > 10000 nM | > 10000 nM | > 10000 nM
C=CCN(/C=C1/C(=O)O[C@H](COC)[C@@]2(C)C1=C(O)C(=O)C1=C2[C@H](OC(C)=O)C[C@]2(C)C(=O)CC[C@@H]12)CC=C [Sonolisib] | > 10000 nM | > 10000 nM | > 10000 nM | > 10000 nM | > 10000 nM | > 10000 nM | > 10000 nM | > 10000 nM | > 10000 nM | – | – | – | – | – | –
Cc1cc(C(C)Nc2ccccc2)c2nc(N3CCOCC3)cc(=O)n2c1 (stereo unspecified) [TGX-221] | – | > 10000 nM | > 10000 nM | > 10000 nM | > 10000 nM | – | > 10000 nM | > 10000 nM | 3370 nM | > 10000 nM | – | – | – | – | 875 nM
C[C@@H](C(=O)O)c1ccc(-c2ccccc2)c(F)c1 [Tarenflurbil] | > 10000 nM | > 10000 nM | > 10000 nM | – | > 10000 nM | > 10000 nM | > 10000 nM | > 10000 nM | > 10000 nM | > 10000 nM | > 10000 nM | > 10000 nM | > 10000 nM | > 10000 nM | > 10000 nM
CO[C@H]1C[C@@H]2CC[C@@H](C)[C@@](O)(O2)C(=O)C(=O)N2CCCC[C@H]2C(=O)O[C@H]([C@H](C)C[C@@H]2CC[C@@H](OC(=O)C(C)(CO)CO)[C@H](OC)C2)CC(=O)[C@H](C)/C=C(\C)[C@@H](O)[C@@H](OC)C(=O)[C@H](C)C[C@H](C)/C=C/C=C/C=C/1C [Temsirolimus] | 1.18 nM | 1.13 nM | > 100 nM | – | > 100 nM | > 100 nM | > 100 nM | > 100 nM | 1.38 nM | 0.227 nM | 0.561 nM | 1.34 nM | 0.775 nM | 0.103 nM | 0.237 nM
C[C@@H]1CCN(C(=O)CC#N)C[C@@H]1N(C)c1ncnc2[nH]ccc12 [Tofacitinib] | > 5000 nM | > 5000 nM | > 5000 nM | > 5000 nM | > 5000 nM | > 5000 nM | > 5000 nM | > 5000 nM | > 5000 nM | 742 nM | > 5000 nM | – | – | – | –
CN(C)CCOc1ccc(/C(=C(/CCCl)c2ccccc2)c2ccccc2)cc1 [Toremifene] | 3460 nM | 3430 nM | 2820 nM | 3220 nM | > 10000 nM | – | > 10000 nM | > 10000 nM | 3740 nM | 2870 nM | 4060 nM | – | – | – | 3440 nM
C[C@]1(c2nc3c(C(N)=O)cccc3[nH]2)CCCN1 [Veliparib] | > 10000 nM | – | > 10000 nM | > 10000 nM | > 10000 nM | > 10000 nM | > 10000 nM | > 10000 nM | 1160 nM | – | > 10000 nM | – | – | – | > 10000 nM
